Source: patent US10047151B2, “Methods for the treatment of cancer and inflammatory diseases using cereblon as a predictor” (Celgene Corporation, priority 2011, dated 2018)

Columns and labels:
Type in all cases: cell-based
OCI-Ly10 = assay: Apoptosis of DLBCL cells
Text: (§1) In order to define the place of lenalidomide for DLBCL therapy in specific patient populations and to understand the molecular mechanisms of efficacy, a panel of DLBCL cell lines was collected in this study. The DLBCL subtypes of the cell lines were confirmed based on literature information (Lenz G, et al., Proc Natl Acad Sci USA 2008; 105: 13520-5) and molecular analysis, including intracellular NF-κB activity or IRF4 expression, as well as gene expression profiling of key signature genes of activated B cells.

U266B1 cells [1] = assay: Gene expression profile by microarray in U266B1 cells; conditions: negative control siRNA-transfected U266B1 cells; pomalidomide 1 μM, lenalidomide 10 μM; ±1.7 fold, P<0.05
Description: Gene expression profile using microarray technology identified 759 or 609 genes differentially modulated in negative control siRNA-transfected U266B1 cells treated with pomalidomide (1 μM) or lenalidomide (10 μM) compared to DMSO treated control (±1.7 fold; P<0.05 ANOVA p-value) (FIGS. 5A & 5B).

U266B1 cells [2] = assay: Cell cycle progression (cells in S phase) in siRNA-transfected U266B1 cells; conditions: control mock and negative control siRNA-transfected cells; average of 3 days of treatment; pomalidomide 1 μM, lenalidomide 10 μM
Description: Drugs such as lenalidomide and pomalidomide have direct anti-proliferative activity against MM cells by inducing cell cycle arrest in G1 phase, followed by a decrease in viability. To study the role of CRBN in lenalidomide and other drugs anti-proliferative activities, H929 and U266B1 cells, two sensitive myeloma lines, were transfected with CRBN-siRNAs or control siRNAs for 24, 48, 72 and 96 hours. Cells were treated 24 h after transfection with DMSO (0.1%), pomalidomide (1 μM) and lenalidomide (10 μM) for 1, 2, 3 days to evaluated the compound effect on CRBN protein, mRNA expression and the effect on cell cycle and proliferation. […] CRBN down regulation was confirmed by RT-PCR and Western blot using the CRBN70 antibody (FIG. 1).
Knockdown of CRBN markedly abrogated the lenalidomide and pomalidomide-induced delay in cell cycle progression in U266B1 cells. Id.

poly-ubiquitin chains = assay: Global polyubiquitination by immunofluorescence in H929 cells; conditions: 1 μM, 30 minutes
Description: Specific antibodies for poly-ubiquitin chains were used to study the effect of immunomodulatory drugs on global levels of ubiquitination. H929 cells were treated with lenalidomide (1 μM), pomalidomide (1 μM) or proteasome inhibitor MG132. After 30 minutes cells were process for immunofluorescence. Global levels of K63-linked polyubiquitination were quantified by Cellomics.

NF-κB = NF-κB subunit DNA binding ELISA on nuclear extracts
Description: Logarithmically growing DLBCL cells were treated with test agents as indicated. Nuclear extracts were prepared using a Nuclear Extract Kit (Active Motif, Carlsbad, Calif.) and protein concentration was determined by the bicinchoninic acid assay (Thermo Scientific, Rockford, Ill.). Detection of NF-κB activity was performed using a sensitive oligo-based colorimetric enzyme-linked immunosorbent assay (ELISA) method, according to the instructions of the manufacturer (Active Motif). Briefly, nuclear extracts of DLBCL cells were hybridized to 96-well plates coated with wild-type DNA oligonucleotides containing a single copy of the NF-κB consensus binding sequence. Bound NF-κB protein was then detected with antibodies specific for p50, p65 (Rel A) or […] subunits. A secondary antibody conjugated to horseradish peroxidase was added and plates were then read by spectrophotometry at 450 nm with a reference wavelength of 655 nm. NF-κB activity was calculated based on OD450/655 nm.
The effect of lenalidomide on NF-κB activity in various DLBCL cells was examined by measuring the level of NF-κB subunit proteins binding to consensus sequences and the NF-κB-driven luciferase activity. […] In contrast, lenalidomide had no effect on NF-κB DNA binding in GCB-DLBCL lines nor in normal peripheral blood mononuclear cells.

CRBN = CRBN mRNA and protein expression after drug treatment (RT-PCR, Western blot); conditions: H929 and U266B1 cells; pomalidomide 1 μM, lenalidomide 10 μM
DLBCL cells = assay: 3H-thymidine incorporation cell proliferation assay in DLBCL cell lines; conditions: 0.01-100 μM, 5 days
Description: Cell proliferation was assessed using the ^3H-thymidine incorporation assay. Briefly, logarithmically growing DLBCL cells were cultured in 96-well culture plates in complete media with the indicated concentration of lenalidomide or DMSO control. Following incubation at 37° C. for 5 days, 1 μCi ^3H-thymidine (GE Healthcare Biosciences, Piscataway, N.J.) was added to each well for the final 5 hours of incubation. Cells were then harvested onto UniFilter GF/C filter plates (PerkinElmer, Waltham, Mass.) using a cell harvester (Tomtec, Hamden, Conn.) and the plates were allowed to dry overnight. The ^3H-thymidine incorporation of each well was then measured using a TopCount NXT Microplate Scintillation and Luminescence Counter (Packard BioScience, Meriden, Conn.). The percent inhibition of cell proliferation was calculated and normalized to DMSO control.
as §1

H929 cells = assay: Cell cycle progression (cells in S phase) in siRNA-transfected H929 cells; conditions: 72 h treatment
Description: The effect of CRBN in H929 cells was also evaluated. H929 cells were transfected with mock, negative control siRNA and CRBN-siRNA-7 for 24, 48, 72 and 96 h. Cells were treated 24 h after transfection with DMSO (0.1%), pomalidomide (1 μM), lenalidomide (10 μM) or 3-(5-amino-2-methyl-4-oxo-4H-quinazolin-3-yl)-piperidine-2,6-dione (“Compound B”) for 1, 2, 3 days and the effect on cell cycle and proliferation investigated. Lenalidomide, pomalidomide and Compound B induced a delay of cell cycle progression, measured as the decrease of the number of cells in S phase, in control mock and negative control siRNA-transfected cells after 72 h treatment (FIG. 2C). Knockdown of CRBN markedly abrogated immunomodulatory drugs-induced delay in cell cycle progression in H929 cells (FIG. 2C) from of 50 to 4% for lenalidomide, from 70 to 15% for pomalidomide, and from 65 to 22% for Compound B.

pRb = pRb phosphorylation in H929 cells (Western blot)

Nc1cccc2c1CN(C1CCC(=O)NC1=O)C2=O (centres unmarked) [lenalidomide, 3-(4-amino-1-oxo-1,3-dihydro-isoindol-2-yl)-piperidine-2,6-dione]
apoptosis of sensitive cell lines (OCI-Ly10): induced apoptosis
genes differentially modulated compared to DMSO treated control (U266B1 cells [1]): 609 genes
delay of cell cycle progression, measured as the decrease of the number of cells in S phase (U266B1 cells [2]): 40%
K-63-linked ubiquitination (poly-ubiquitin chains): but not K-63-linked ubiquitination
total K48-linked polyubiquitination (poly-ubiquitin chains): decrease
NF-κB DNA binding (NF-κB; GCB-DLBCL lines and normal peripheral blood mononuclear cells): no effect
NF-κB inhibition (NF-κB; lenalidomide-insensitive ABC-DLBCL OCI-Ly3 line with CARD11 mutation): not by lenalidomide
DNA binding by Rel A/p65, p50 and c-rel/p70 NF-κB subunits (NF-κB; several ABC-DLBCL cell lines, concentration-dependent): partially inhibited
mRNA and protein expression of CRBN (CRBN): affected neither mRNA nor protein expression of CRBN significantly
proliferation of cells (DLBCL cells; ABC-DLBCL cell lines, except for OCI-Ly3): significantly inhibited
proliferation of cells (DLBCL cells; PBML and GCB-DLBCL cells): minimal effects
delay in cell cycle progression (decrease of the number of cells in S phase) (H929 cells; H929 cells with knockdown of CRBN): 4%
delay in cell cycle progression (decrease of the number of cells in S phase) (H929 cells; control mock and negative control siRNA-transfected H929 cells): 50%
phosphorylation of pRB (pRb): decreased
